Measurements: patent US12478619B2, “Method of treatment with milsaperidone” (Vanda Pharmaceuticals Inc., priority 2023, dated 2025)

Experiments:
[1] = human, in vivo
Protocol: A study is performed to evaluate the efficacy and safety of iloperidone compared with placebo and active control (ziprasidone) in subjects with acute schizophrenia (“Study 3101”). Patients are randomized to receive one of iloperidone at a dose of 24 mg/day given in a divided dose as 12 mg twice daily (bid), active comparator ziprasidone, or placebo. […] Uric acid results are converted to SI units using the conversion 1 mg/dL=59.5 μmol/L.
Results are provided in Table 7 below, including an increase of 28.0 μmol/L for iloperidone compared to a decrease of 4.2 μmol/L in placebo groups.
Patient genotypes are obtained via a commercial 500 k SNP Gene Chip Human Mapping Array. To test the hypothesis of altered urate serum levels in association with variants in SLC2A9, Linear models for SLC2A9 variants are performed on urate at baseline levels (corrected for PCs, age, sex) followed by samples collected at end of study (EOS).

[2] = Study 3201: serum urate in patients with acute manic episodes associated with bipolar I disorder, iloperidone vs placebo, 4 weeks; format: in vivo, human; details: for Serum urate LS Mean Change (SE) from baseline: iloperidone 24 mg/day (12 mg bid) oral, ANCOVA
Protocol: A multi-center, randomized, double-blind, placebo-controlled study (“Study 3201”) is performed to evaluate the safety and efficacy of iloperidone for four (4) weeks in the treatment of patients with acute manic episodes associated with bipolar I disorder. Patients in the study are randomized to orally receive either iloperidone at a dose of 24 mg/day given in a divided dose as 12 mg twice daily (bid), or matched placebo.
These increases are illustrated in FIG. 3 using solid data points.
To test the hypothesis of altered urate serum levels in association with variants in the SLC2A9 gene, whole genome sequencing is conducted from blood samples, genotype status is obtained through standard data analysis, and linear models for SLC2A9 variants are performed on urate concentration in samples collected at baseline (corrected for PCs, age, sex) and samples collected at the end of the study (EOS).

## O=C1Cc2cc(CCN3CCN(c4nsc5ccccc45)CC3)c(Cl)cc2N1 [ziprasidone]
[1]
  Serum urate LS mean change from baseline to endpoint, ziprasidone treatment arm: 13.1 µmol/L

## COc1cc(C(C)=O)ccc1OCCCN1CCC(c2noc3cc(F)ccc23)CC1 [Iloperidone, 1-[4-[3-[4-(6-flouro-1,2-benzisoxazol-3-yl)-1-piperidinyl]propoxy]-3-methoxyphenyl]ethanone]
[2]; 24 mg/day given as 12 mg bid, value in mg/dL
  Increase of serum urate levels: ~0.457 mg/dL
[2]; Day 7, 24 mg/day
  Serum urate LS Mean Difference (95% CI), iloperidone vs placebo: 1.3 (−9.29, 11.88) μmol/L
[2]; Day 7
  Serum urate LS Mean Change (SE) from baseline: −2.7 (−4.07), 199 μmol/L
[2]; Day 14, 24 mg/day
  Serum urate LS Mean Difference (95% CI), iloperidone vs placebo: 15.3 (4.50, 26.15) μmol/L
[2]; Day 14
  Serum urate LS Mean Change (SE) from baseline: 12.6 (−4.28), 173 μmol/L
[2]; Day 21, 24 mg/day
  Serum urate LS Mean Difference (95% CI), iloperidone vs placebo: 21.0 (8.91, 33.18) μmol/L
[2]; Day 21
  Serum urate LS Mean Change (SE) from baseline: 19.1 (−5.24), 157 μmol/L
[2]; Day 28 (endpoint)
  Serum urate LS Mean Change (SE) from baseline: 27.2 (−4.93), 142 μmol/L
[2]; Day 28 (endpoint), listed as FANAPT® iloperidone
  Serum urate LS Mean Change (SE) from baseline: approximately 27.2 μmol/L
[2]; Day 28 (endpoint), listed as iloperidone
  Serum urate LS Mean Change (SE) from baseline: 27.2 µmol/L
[2]; Day 28, 24 mg/day
  Increase in serum urate from baseline compared to placebo: 4 fold
  Serum urate LS Mean Difference (95% CI), iloperidone vs placebo: 27.1 (14.94, 39.20) μmol/L
[2]; Day 28, 24 mg/day, FIG. 3
  Change in serum urate from baseline (mean, observed cases): 33.4 µmol/L
[2]; Day 28, genotype AA
  LS Mean Change (SE) in Serum Urate: 25.74 (6.53), 73 μmol/L
  Serum urate LS Mean Difference (95% CI), iloperidone vs placebo: 31.91 (14.82, 49) μmol/L
[2]; Day 28, genotype AA, sex F
  LS Mean Change (SE) in Serum Urate: 25.48 (9.16), 34 μmol/L
  Serum urate LS Mean Difference (95% CI), iloperidone vs placebo: 27.85 (2.93, 52.76) μmol/L
[2]; Day 28, genotype AA, sex M
  LS Mean Change (SE) in Serum Urate: 28.89 (8.7), 39 μmol/L
  Serum urate LS Mean Difference (95% CI), iloperidone vs placebo: 35.52 (12.82, 58.22) μmol/L
[2]; Day 28, genotype AG
  LS Mean Change (SE) in Serum Urate: 24.62 (7.61), 51 μmol/L
  Serum urate LS Mean Difference (95% CI), iloperidone vs placebo: 14.84 (−4.18, 33.86) μmol/L
[2]; Day 28, genotype AG, sex F
  LS Mean Change (SE) in Serum Urate: 0.06 (10.14), 27 μmol/L
  Serum urate LS Mean Difference (95% CI), iloperidone vs placebo: −7.9 (−34.82, 19.03) μmol/L
[2]; Day 28, genotype AG, sex M
  LS Mean Change (SE) in Serum Urate: 53.41 (10.84), 24 μmol/L
  Serum urate LS Mean Difference (95% CI), iloperidone vs placebo: 40.79 (14.61, 66.96) μmol/L
[2]; Day 28, genotype GG
  LS Mean Change (SE) in Serum Urate: 40.09 (12.36), 18 μmol/L
  Serum urate LS Mean Difference (95% CI), iloperidone vs placebo: 56.95 (18.91, 94.99) μmol/L
[2]; Day 28, genotype GG, sex F
  LS Mean Change (SE) in Serum Urate: −0.19 (19.49), 7 μmol/L
  Serum urate LS Mean Difference (95% CI), iloperidone vs placebo: 3.08 (−50.97, 57.13) μmol/L
[2]; Day 28, genotype GG, sex M
  LS Mean Change (SE) in Serum Urate: 65.61 (15.42), 11 μmol/L
  Serum urate LS Mean Difference (95% CI), iloperidone vs placebo: 102.96 (48.93, 156.99) μmol/L
[2]; Day 28, rs7442295 genotype AA, 24 mg/day
  Mean Change (SE) from Baseline in Serum Urate, Observed Cases: 30.5 (50.99), 73 μmol/L
[2]; Day 28, rs7442295 genotype AG, 24 mg/day
  Mean Change (SE) from Baseline in Serum Urate, Observed Cases: 31.9 (59.39), 51 μmol/L
[2]; Day 28, rs7442295 genotype GG, 24 mg/day
  Mean Change (SE) from Baseline in Serum Urate, Observed Cases: 49.1 (60.56), 18 μmol/L
[2]; EOS (last observation carried forward), genotype AA, sex F
  LS Mean Change (SE) in Serum Urate: 14.93 (8.59), 41 μmol/L
[2]; EOS (last observation carried forward), genotype AA, sex M
  LS Mean Change (SE) in Serum Urate: 20.63 (7.29), 60 μmol/L
[2]; EOS (last observation carried forward), genotype AG, sex F
  LS Mean Change (SE) in Serum Urate: −2.27 (8.75), 39 μmol/L
[2]; EOS (last observation carried forward), genotype AG, sex M
  LS Mean Change (SE) in Serum Urate: 32.96 (8.74), 41 μmol/L
[2]; EOS (last observation carried forward), genotype GG, sex F
  LS Mean Change (SE) in Serum Urate: −6.03 (20.3), 7 μmol/L
[2]; EOS (last observation carried forward), genotype GG, sex M
  LS Mean Change (SE) in Serum Urate: 67.03 (15.38), 12 μmol/L
[2]; EOS, Female (ULN 394 μmol/l), rs7442295 AA
  Percentage of patients with serum urate above ULN: 15.0%
[2]; EOS, Female (ULN 394 μmol/l), rs7442295 AG
  Percentage of patients with serum urate above ULN: 8.1%
[2]; EOS, Female (ULN 394 μmol/l), rs7442295 GG
  Percentage of patients with serum urate above ULN: 0.0%
[2]; EOS, Male (ULN 453 μmol/l), rs7442295 AA
  Percentage of patients with serum urate above ULN: 12.3%
[2]; EOS, Male (ULN 453 μmol/l), rs7442295 AG
  Percentage of patients with serum urate above ULN: 13.5%
[2]; EOS, Male (ULN 453 μmol/l), rs7442295 GG
  Percentage of patients with serum urate above ULN: 33.3%
[2]; EOS, Male (ULN 453 μmol/l), rs7442295 GG, listed as iloperidone
  Percentage of patients with serum urate above ULN: about 33.3%
[2]; EOS, genotype AA
  LS Mean Change (SE) in Serum Urate: 16.73 (5.66), 101 μmol/L
  Serum urate LS Mean Difference (95% CI), iloperidone vs placebo: 18.23 (3.19, 33.28) μmol/L
[2]; EOS, genotype AA, sex F
  Serum urate LS Mean Difference (95% CI), iloperidone vs placebo: 15.97 (−6.71, 38.64) μmol/L
[2]; EOS, genotype AA, sex M
  Serum urate LS Mean Difference (95% CI), iloperidone vs placebo: 18.99 (−0.89, 38.86) μmol/L
[2]; EOS, genotype AG
  LS Mean Change (SE) in Serum Urate: 15.05 (6.29), 80 μmol/L
  Serum urate LS Mean Difference (95% CI), iloperidone vs placebo: 8.61 (−8.27, 25.48) μmol/L
[2]; EOS, genotype AG, sex F
  Serum urate LS Mean Difference (95% CI), iloperidone vs placebo: −1.4 (−25.85, 23.06) μmol/L
[2]; EOS, genotype AG, sex M
  Serum urate LS Mean Difference (95% CI), iloperidone vs placebo: 19.58 (−2.91, 42.08) μmol/L
[2]; EOS, genotype GG
  LS Mean Change (SE) in Serum Urate: 40.4 (12.41), 19 μmol/L
  Serum urate LS Mean Difference (95% CI), iloperidone vs placebo: 55.4 (18.68, 92.13) μmol/L
[2]; EOS, genotype GG, sex F
  Serum urate LS Mean Difference (95% CI), iloperidone vs placebo: 4.54 (−50.43, 59.52) μmol/L
[2]; EOS, genotype GG, sex M
  Serum urate LS Mean Difference (95% CI), iloperidone vs placebo: 88.45 (38.7, 138.21) μmol/L
[2]; GG genotype compared with other iloperidone-treated patients
  Increases in serum urate levels in iloperidone-treated patients homozygous for rs7442295 (G): nearly twice as large
[2]; iloperidone-treated patients, FIG. 9, panova<0.0001
  Change in SUC relative to baseline at EOS, rs7442295-G/G vs A/G or A/A: significantly greater change from baseline
[2]; male, GG, from about 8.3% at baseline
  Increase in percentage of male rs7442295-G/G individuals with high urate levels, baseline to end of study: approximately 4 fold
